Reference: patent US6906170B1 (Yeda Research and Development Co. Ltd., priority 1998, dated 2005)
No end group written: not given here.

What was measured:
[1] = tested on: HT-29 cells; assay: Spontaneous IL-8 secretion from intestinal epithelial cells (ELISA); format: cell-based, human; parameters: IL-8 secretion Average O.D.: scale not given here; conditions: peptide 1 nM, 24 h at 37° C.; for IL-8 secretion Average O.D.: ELISA O.D. at 405 nm, medium alone 488 ± 8.5, background 71 ± 1.4; for IL-8 secretion % inhibition: spontaneous secretion
Procedure: Human colonic epithelial cell lines HT-29 (ATCC HTB38) and Caco-2 (ATCC […]) were obtained from the American Type Culture Collection (ATTC, Rockville, Md.). Cells were maintained in culture medium (DMEM supplemented with 10% cosmic calf serum (CSS), 2 mM glutamine, 100 U/ml penicillin, and 0.1 mg/ml streptomycin), at 37° C. and atmosphere of 5%, CO2. Cell viability was assessed using the standard MTT method.
Spontaneous or cytokine-induced secretion of IL-8 or IL-1β from intestinal epithelial cell. Test cells (HT-29 or Caco-2) were grown as confluent monolayers in 24-well tissue culture plates. […] When TNF-α was used, the peptides were added to the cells 1 hour prior to the addition of TNF-α. Following culture, the supernatants were harvested and analyzed for IL-8 or IL-1β secretion by ELISA using commercially available kits for IL-8 (Pharmingen) and IL-1β (Genzyme), according to the manufacturers' protocols.
The results in Table 1 show the O.D. readings of the ELISA assay (at 405 nm) as well as the percentage of inhibition of IL-8 secretion.

[2] = tested on: human T cells; assay: IL-2-induced T cell adhesion to fibronectin (FN); format: cell-based; conditions: IL-2 10 U/ml, 30 min at 37° C., dose range
Procedure: T cell adhesion assays. Human T cells were purified from the peripheral blood of healthy donors, and T cell adhesion to immobilized protein substrates was examined as follows: Human leukocytes were isolated on a Ficoll gradient, washed, and incubated (2 h, 37° C., 7.5% CO2, humidified atmosphere) on petri dishes. The non-adherent cells were then collected and incubated (1 h, 37° C., 7.5% CO2, humidified atmosphere) on nylon wool columns (Novamed Ltd., Jerusalem, Israel). Unbound cells were eluted from the columns by extensive washings. The resulting cell population was always >92% T cells. […] After 4-6 h at 37° C., the wells were washed and ^51[Cr]-labeled T cells were added to the wells, 10^5 cells/100 μl of adhesion medium (RPMI-1640 supplemented with 0.1% BSA, 1% sodium pyruvate, 1% HEPES buffer). The microtiter plates containing the cells were incubated (30 min, 37° C.) in a humidified, 7.5% CO2 atmosphere, and then washed. The adherent cells were lysed, and the resulting supernatants were removed and analyzed in a γ-counter. For each experimental group, the results were expressed as the mean percentage ±SD of bound T cells from quadruplicate wells.
The effect of synthetic peptides, with putative amino acid compositions corresponding to fractions 2 and 8, on IL-2-induced T cell adhesion to FN. […] These three peptides were synthesized, and their effects on IL-2-induced T cell adhesion to FN were studied. […] The inhibitory dose-response curves of Ile-Val-Leu and […](SEQ ID NO:1) are similar to those of the HPLC fractions 2 and 8, respectively, from which they were derived. […]

Substance | IL-8 secretion Average O.D. [1] | IL-8 secretion % inhibition [1] | inhibition of adhesion of IL-2-activated T cells to FN [2]
EFLNAWIT [pep28] | 120 ± 8.5 | 88% | –
Ile-Val-Ala [pep9] | 100 ± 9.9 | 93% | –
EFLNRWITFCQS [pep18] | 162 ± 12.0 | 78% | –
Arg-Met-Leu-Ala (RMLA) [pep39] | 160 ± 21.9 | 79% | –
Glu-Phe-Leu-Asn-Arg-Trp-Ile-Thr-NH2 (EFLNRWIT-NH2) [pep33] | 73 ± 5.7 | 100% | –
IVEFLNRWIT [pep15] | 33 ± 0.7 | 109% | –
PKLTRMLT [pep43] | 57 ± 12.7 | 103% | –
Arg-Met-Leu-Thr-NH2 (RMLT-NH2) [pep42] | 226 ± 28.3 | 63% | –
Thr-Leu-Met-Arg (TLMR) [reference compound] | – | – | none of these peptides, tested in a broad range of dosages, interfere with T cell adhesion
Arg-Trp-Ile-Thr [pep20] | 191 ± 4.9 | 71% | –
Ala-Met-Leu-Thr (AMLT) [pep36] | 201 ± 17.7 | 69% | –
EFLNRWIA [pep32] | 80 ± 24.0 | 98% | –
EFLNEWIT [pep29] | 139 ± 19.8 | 84% | –
EFLNRWITFC [pep16] | 126 ± 7.1 | 87% | –
Glu-Val-Leu [pep10] | 125 ± 19.1 | 87% | –
NINVIVL [pep4] | 34 ± 3.5 | 109% | –
KFLNRWIT [pep23] | 36 ± 14.1 | 108% | –
EALNRWIT [pep24] | 187 ± 16.3 | 72% | –
EFLNRWAT [pep31] | 112 ± 18.4 | 90% | –

Substance | IL-8 secretion Average O.D. [1] | IL-8 secretion % inhibition [1] | inhibition of adhesion of IL-2-activated T cells to FN [2]
EFANRWIT [pep26] | 156 ± 27.6 | 80% | –
LNRWIT [pep19] | 152 ± 30.4 | 81% | –
Arg-Ala-Leu-Thr (RALT) [pep37] | 222 ± 24.0 | 64% | –
Asn-Val-Ile-Val-Leu (NVIVL) [pep6] | 100 ± 14.8 | 93% | –
RMLTFKFY [pep44] | 307 ± 29.7 | 43% | –
TIWRNLFE [reference compound] | – | – | none of these peptides, tested in a broad range of dosages, interfere with T cell adhesion
AFLNRWIT [pep22] | 158 ± 4.2 | 79% | –
Glu-Phe-Leu-Asn [pep21] | 195 ± 14.1 | 70% | –
EFLNRAIT [pep30] | 123 ± 9.2 | 88% | –
Lys-Met-Leu-Thr (KMLT) [pep40] | 179 ± 17.7 | 74% | –
Leu-Val-Ile [reference compound] | – | – | none of these peptides, tested in a broad range of dosages, interfere with T cell adhesion
Arg-Val-Leu-Thr (RVLT) [pep41] | 132 ± 17.0 | 85% | –
Arg-Met-Ala-Thr (RMAT) [pep38] | 157 ± 1.4 | 79% | –
Ala-Val-Leu [pep7] | 170 ± 8.5 | 76% | –
EFLARWIT [pep27] | 309 ± 18.4 | 43% | –
ATIVEFLNRWIT [pep17] | 150 ± 6.4 | 81% | –
Ile-Ala-Leu [pep8] | 35 ± 4.9 | 109% | –
EVLNRWIT [pep25] | 172 ± 2.8 | 76% | –
IVLELKG [pep5] | 35 ± 0.7 | 109% | –
